Experimental data taken from publication PMC9297976 (Journal of Applied Toxicology, 2021).

Legend:
medaka Esr1 (mEsr1) [1] = target: T1, medaka Esr1 (mEsr1) (Oryzias latipes, UniProt P50241); test: cell-based; design: species or system Japanese medaka (Oryzias latipes)
T1 sequence (P50241 1-620): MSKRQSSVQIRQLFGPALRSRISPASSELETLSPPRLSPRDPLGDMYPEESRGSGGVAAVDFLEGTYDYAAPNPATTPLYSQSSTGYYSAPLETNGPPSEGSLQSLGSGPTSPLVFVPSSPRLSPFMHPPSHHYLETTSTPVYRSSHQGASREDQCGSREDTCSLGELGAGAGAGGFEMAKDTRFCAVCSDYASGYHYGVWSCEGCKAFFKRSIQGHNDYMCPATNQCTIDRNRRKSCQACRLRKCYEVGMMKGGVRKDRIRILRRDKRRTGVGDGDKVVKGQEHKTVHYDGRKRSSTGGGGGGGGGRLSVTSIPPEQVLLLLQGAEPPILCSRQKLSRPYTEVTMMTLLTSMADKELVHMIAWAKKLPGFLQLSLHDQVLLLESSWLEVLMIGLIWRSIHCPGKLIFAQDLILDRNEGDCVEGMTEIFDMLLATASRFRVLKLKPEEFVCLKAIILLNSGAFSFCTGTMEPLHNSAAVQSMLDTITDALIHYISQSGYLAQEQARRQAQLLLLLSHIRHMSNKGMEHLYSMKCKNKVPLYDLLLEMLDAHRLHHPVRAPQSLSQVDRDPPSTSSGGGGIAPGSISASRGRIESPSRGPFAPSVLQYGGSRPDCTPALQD

medaka Esr1 (mEsr1) [2] = target: T1, medaka Esr1 (mEsr1); test: Medaka Esr1 reporter gene assay, antagonist assay; type: cell-based, Japanese medaka (Oryzias latipes); details: E2 spiked at 1.0 nM (B); MAC = 1.0 × 10^−5 M
medaka ARβ (mArβ) [3] = target: T2, medaka ARβ (mArβ) (Oryzias latipes, UniProt D1MV73); test: Medaka ARβ reporter gene assay, agonist assay; type: cell-based, Japanese medaka (Oryzias latipes); details: MAC = 1.0 × 10^−5 M
T2 sequence (D1MV73 1-744): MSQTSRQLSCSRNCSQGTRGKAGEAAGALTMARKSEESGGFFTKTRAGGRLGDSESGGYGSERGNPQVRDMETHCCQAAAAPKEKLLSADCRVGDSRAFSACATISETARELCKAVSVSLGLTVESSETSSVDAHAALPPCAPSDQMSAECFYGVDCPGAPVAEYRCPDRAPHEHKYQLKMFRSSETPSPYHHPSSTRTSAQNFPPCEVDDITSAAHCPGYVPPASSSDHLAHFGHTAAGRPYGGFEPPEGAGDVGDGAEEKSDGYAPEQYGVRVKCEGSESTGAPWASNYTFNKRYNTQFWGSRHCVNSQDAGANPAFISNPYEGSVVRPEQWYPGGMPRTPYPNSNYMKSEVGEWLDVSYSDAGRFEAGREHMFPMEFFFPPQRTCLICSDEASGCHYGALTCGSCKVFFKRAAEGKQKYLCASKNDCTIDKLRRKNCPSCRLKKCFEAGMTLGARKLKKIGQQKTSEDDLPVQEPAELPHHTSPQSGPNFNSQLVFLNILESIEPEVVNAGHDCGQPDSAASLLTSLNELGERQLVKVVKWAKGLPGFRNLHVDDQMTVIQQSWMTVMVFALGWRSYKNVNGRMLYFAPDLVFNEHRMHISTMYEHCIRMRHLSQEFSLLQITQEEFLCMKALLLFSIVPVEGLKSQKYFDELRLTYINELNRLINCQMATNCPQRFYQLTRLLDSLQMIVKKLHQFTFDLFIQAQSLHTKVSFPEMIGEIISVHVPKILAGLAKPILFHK

medaka ARβ (mArβ) [4] = target: T2, medaka ARβ (mArβ); test: Medaka ARβ reporter gene assay, antagonist assay; type: cell-based, Japanese medaka (Oryzias latipes); details: 11‐KT spiked at 50 nM (D); MAC = 1.0 × 10^−5 M
[5] = tested on: Japanese medaka (Oryzias latipes); test: Fish Short‐Term Reproduction Assay; type: in vivo; details: for GSI Female / GSI Male / HSI Female / HSI Male / Length Female / Length Male / Weight Female / Weight Male: completion of exposure
[6] = ref Brooke et al., 2009; Saeger et al., 1979; cited from earlier work
[7] = 44.9 μg/L measured, 21 d, sig. ↓ vs control
[8] = measured concentration 2.13 μg/L
[9] = measured concentration 7.19 μg/L
[10] = measured concentration 17.1 μg/L
[11] = measured concentration 44.9 μg/L

For O=P(Oc1ccccc1)(Oc1ccccc1)Oc1ccccc1 [TPP, Triphenyl phosphate], the EC50 (medaka Esr1 (mEsr1) [1]) was 9.7 µM, the “In vitro positive: Esr” value (medaka Esr1 (mEsr1) [1]; mode of action in which EC50 or PC10 was obtained in RGA) was “Esr” and the Antagonistic activity (medaka Esr1 (mEsr1) [2]) was “NE (MAC = 1.0 × 10^−5 M)^(B)”. The Agonistic activity (medaka ARβ (mArβ) [3]) was “NE (MAC = 1.0 × 10^−5 M)”, the Antagonistic activity (medaka ARβ (mArβ) [4]) was “NE (MAC = 1.0 × 10^−5 M)^(D)” and the Fertility rate ([5]; 2.13 μg/L measured, 21 d) was 89 ± 4.9%. For the same compound, the “Hepatic VTG, female” value ([5]; 2.13 μg/L measured, 21 d) was 542 ± 115 ng/mg‐liver, the “Hepatic VTG, male” value ([5]; 2.13 μg/L measured, 21 d) was 6.9 ± 4.0 ng/mg‐liver and the Mortality ([5]; 2.13 μg/L measured, 21 d) was 0.0%. The “Mortality, number of dead fish” value ([5]; 2.13 μg/L measured, 21 d) was 0, the “Number of fertilized eggs (per female per day)” value ([5]; 2.13 μg/L measured, 21 d) was 18 ± 3.1 and the “Number of total eggs (per female per day)” value ([5]; 2.13 μg/L measured, 21 d) was 20 ± 2.7. For the same compound, the “SSC female (joint plates with papillary processes)” value (from here on “SSC female”) ([5]; 2.13 μg/L measured, 21 d) was 0 ± 0, the “SSC male (joint plates with papillary processes)” value (from here on “SSC male”) ([5]; 2.13 μg/L measured, 21 d) was 83 ± 7.4 and the Fertility rate ([5]; 7.19 μg/L measured, 21 d) was 91 ± 3.8%. For the same compound, the “Hepatic VTG, male” value ([5]; 7.19 μg/L measured, 21 d) was 8.4 ± 9.0 ng/mg‐liver, the Mortality ([5]; 7.19 μg/L measured, 21 d) was 0.0% and the “Mortality, number of dead fish” value ([5]; 7.19 μg/L measured, 21 d) was 0. For the same compound, the “Number of fertilized eggs (per female per day)” value ([5]; 7.19 μg/L measured, 21 d) was 17 ± 3.4, the “Number of total eggs (per female per day)” value ([5]; 7.19 μg/L measured, 21 d) was 19 ± 3.1 and the “SSC female” value ([5]; 7.19 μg/L measured, 21 d) was 0 ± 0. For the same compound, the “SSC male” value ([5]; 7.19 μg/L measured, 21 d) was 84 ± 6.9, the “Hepatic VTG, female” value ([5]; 7.19 μg/L measured, 21 d, sig. ↓ vs control) was 360 ± 60 ng/mg‐liver and the Fertility rate ([5]; 17.1 μg/L measured, 21 d) was 93 ± 2.2%. For the same compound, the “Hepatic VTG, male” value ([5]; 17.1 μg/L measured, 21 d) was 11 ± 9.4 ng/mg‐liver, the Mortality ([5]; 17.1 μg/L measured, 21 d) was 0.0% and the “Mortality, number of dead fish” value ([5]; 17.1 μg/L measured, 21 d) was 0. The “Number of fertilized eggs (per female per day)” value ([5]; 17.1 μg/L measured, 21 d) was 19 ± 1.8, the “Number of total eggs (per female per day)” value ([5]; 17.1 μg/L measured, 21 d) was 20 ± 2.0 and the “SSC female” value ([5]; 17.1 μg/L measured, 21 d) was 0 ± 0. For the same compound, the “SSC male” value ([5]; 17.1 μg/L measured, 21 d) was 83 ± 7.2, the “Hepatic VTG, female” value ([5]; 17.1 μg/L measured, 21 d, sig. ↓ vs control) was 420 ± 77 ng/mg‐liver and the Fertility rate ([5]; 44.9 μg/L measured, 21 d) was 91 ± 3.9%. The “Hepatic VTG, male” value ([5]; 44.9 μg/L measured, 21 d) was 8.8 ± 8.1 ng/mg‐liver, the Mortality ([5]; 44.9 μg/L measured, 21 d) was 4.2% and the “Mortality, number of dead fish” value ([5]; 44.9 μg/L measured, 21 d) was 1. For the same compound, the “SSC female” value ([5]; 44.9 μg/L measured, 21 d) was 0 ± 0, the “SSC male” value ([5]; 44.9 μg/L measured, 21 d) was 90 ± 8.0 and the “Hepatic VTG, female” value [5, 7] was 417 ± 70 ng/mg‐liver. For the same compound, the “Number of fertilized eggs (per female per day)” value [5, 7] was 15 ± 3.5, the “Number of total eggs (per female per day)” value [5, 7] was 16 ± 3.2 and the “Fecundity, number of total eggs (in words)” value ([5]; 21 d) was “statistically significant decrease”. For the same compound, the LOECmVTG ([5]; LOEC on VTG induction in males) was “ND (>44.9) μg/L”, the LOECREPRO ([5]; LOEC on reproduction (fecundity and/or fertility)) was 44.9 µg/L and the “Fertility rate (in words)” value ([5]; chemicals with significant decrease of number of total eggs) was “no significant effect”. For the same compound, the “LOECREPRO (reduction in fecundity or fertility)” value ([5]; concentrations without overt toxicity) was 44.9 µg/L, the LOECTOX ([5]; lowest observed effect concentration on mortality) was “ND (>44.9) μg/L” and the “GSI Female” value [5, 8] was 7.9 ± 0.5%. For the same compound, the “GSI Male” value [5, 8] was 0.87 ± 0.17%, the “HSI Female” value [5, 8] was 3.5 ± 0.39% and the “HSI Male” value [5, 8] was 1.4 ± 0.12%. The “Length Female” value [5, 8] was 35.3 ± 0.7 mm, the “Length Male” value [5, 8] was 37.9 ± 1.1 mm and the “Weight Female” value [5, 8] was 449 ± 19 mg. For the same compound, the “Weight Male” value [5, 8] was 532 ± 44 mg, the “GSI Female” value [5, 9] was 8.1 ± 0.6% and the “GSI Male” value [5, 9] was 0.95 ± 0.09%. The “HSI Female” value [5, 9] was 3.1 ± 0.21%, the “HSI Male” value [5, 9] was 1.7 ± 0.29% and the “Length Female” value [5, 9] was 35.5 ± 0.3 mm. For the same compound, the “Length Male” value [5, 9] was 38.0 ± 1.1 mm, the “Weight Female” value [5, 9] was 464 ± 27 mg and the “Weight Male” value [5, 9] was 544 ± 49 mg. The “GSI Female” value [5, 10] was 7.7 ± 0.7%, the “GSI Male” value [5, 10] was 0.94 ± 0.10% and the “HSI Female” value [5, 10] was 3.6 ± 0.46%. For the same compound, the “HSI Male” value [5, 10] was 1.7 ± 0.24%, the “Length Female” value [5, 10] was 35.2 ± 1.0 mm and the “Length Male” value [5, 10] was 37.7 ± 1.0 mm. For the same compound, the “Weight Female” value [5, 10] was 468 ± 34 mg, the “Weight Male” value [5, 10] was 539 ± 31 mg and the “GSI Female” value [5, 11] was 9.4 ± 1.3%. The “GSI Male” value [5, 11] was 0.80 ± 0.07%, the “HSI Female” value [5, 11] was 3.6 ± 0.60% and the “HSI Male” value [5, 11] was 1.7 ± 0.13%. The “Length Female” value [5, 11] was 34.4 ± 0.4 mm, the “Length Male” value [5, 11] was 38.3 ± 1.1 mm and the “Weight Female” value [5, 11] was 432 ± 32 mg. The “Weight Male” value [5, 11] was 583 ± 68 mg and the Water solubility [6] was 1 to 1.9 µg/mL.
